Data published in PubChem BioAssay AID248 (DTP/NCI, 2004).
Where “and” joins values, the source holds several entries; their conditions need not be identical. Equal values may be shown once. Inconclusive results and toxic doses are left out. No stated cut-off is given here; in the data, active means T/C of 150% or more; inactive means T/C below 125%.

System: L1210 leukemia ip in BDF1 mice, survival T/C
Assay: NCI In Vivo Anticancer Drug Screen. Data for tumor model L1210 Leukemia (intraperitoneal) in B6D2F1 (BDF1) mice
Details: endpoint: mean survival time, higher = longer survival
Summary of the method: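 Tumor was transplanted into mice, which were then dosed with test compound or vehicle alone. Survival was recorded for each group, and the treated figure was expressed relative to the control figure.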

[1] = dose: 100.0 mg/kg/injection, schedule: Q01DX009 (ip), vehicle: saline
[2] = dose: 200.0 mg/kg/injection, schedule: Q01DX009 (ip), vehicle: saline
[3] = dose: 400.0 mg/kg/injection, schedule: Q01DX009 (ip), vehicle: saline
[4] = dose: 100.0 mg/kg/injection, schedule: Q04DX003 (ip), vehicle: saline
[5] = dose: 200.0 mg/kg/injection, schedule: Q04DX003 (ip), vehicle: saline
[6] = dose: 400.0 mg/kg/injection, schedule: Q04DX003 (ip), vehicle: saline
[7] = dose: 100.0 mg/kg/injection, schedule: Q01DX001 (ip), vehicle: saline
[8] = dose: 200.0 mg/kg/injection, schedule: Q01DX001 (ip), vehicle: saline
[9] = dose: 100.0 mg/kg/injection, schedule: Q01DX009 (ip), vehicle: saline with Tween-80
[10] = dose: 100.0 mg/kg/injection, schedule: Q01DX009 (ip), vehicle: Klucel (hydroxypropylcellulose) (HPC)
[11] = dose: 100.0 mg/kg/injection, schedule: Q04DX003 (ip), vehicle: Klucel (hydroxypropylcellulose) (HPC)
[12] = dose: 200.0 mg/kg/injection, schedule: Q01DX009 (ip), vehicle: Klucel (hydroxypropylcellulose) (HPC)
[13] = dose: 200.0 mg/kg/injection, schedule: Q04DX003 (ip), vehicle: Klucel (hydroxypropylcellulose) (HPC)
[14] = dose: 400.0 mg/kg/injection, schedule: Q01DX009 (ip), vehicle: Klucel (hydroxypropylcellulose) (HPC)
[15] = dose: 400.0 mg/kg/injection, schedule: Q04DX002 (ip), vehicle: Klucel (hydroxypropylcellulose) (HPC)
[16] = dose: 400.0 mg/kg/injection, schedule: Q04DX003 (ip), vehicle: Klucel (hydroxypropylcellulose) (HPC)
[17] = dose: 400.0 mg/kg/injection, schedule: Q01DX001 (ip), vehicle: saline

Measured: T/C

CC(=O)Nc1onc(C)c1[N+](=O)[O-]
inactive: [1] 101 % of control | dose: 100.0 mg/kg/injection, schedule: Q04DX003 (ip), vehicle: other 91 % of control | [2] 98 % of control and 91 % of control | dose: 200.0 mg/kg/injection, schedule: Q04DX003 (ip), vehicle: other 92 % of control | [3] 94 % of control and 86 % of control | dose: 400.0 mg/kg/injection, schedule: Q04DX003 (ip), vehicle: other 94 % of control

COB1OB(OC)OB(OC)O1
inactive: dose: 500.0 mg/kg/injection, schedule: Q01DX Z (ip), vehicle: other 94 % of control | dose: 750.0 mg/kg/injection, schedule: Q01DX Z (ip), vehicle: other 104 % of control | dose: 1000.0 mg/kg/injection, schedule: Q01DX001 (ip), vehicle: carboxymethylcellulose (CMC) 109 % of control | dose: 1000.0 mg/kg/injection, schedule: Q01DX Z (ip), vehicle: other 107 % of control | dose: 1500.0 mg/kg/injection, schedule: Q01DX Z (ip), vehicle: other 118 % of control | dose: 2000.0 mg/kg/injection, schedule: Q01DX001 (ip), vehicle: carboxymethylcellulose (CMC) 113 % of control | dose: 3000.0 mg/kg/injection, schedule: Q01DX001 (ip), vehicle: carboxymethylcellulose (CMC) 113 % of control

O=S(=O)(O)CCC(CO)(CO)CO
inactive: [1] 98 % of control | [4] 101 % of control | [2] 102 % of control | [5] 101 % of control | [3] 101 % of control | [6] 97 % of control

CNNCc1ccccc1
inactive: [7] 117 % of control | [8] 115 % of control

COc1cc(OC)cc(C(=O)Cl)c1
inactive: [9] 100 % of control | dose: 200.0 mg/kg/injection, schedule: Q01DX009 (ip), vehicle: saline with Tween-80 103 % of control | dose: 400.0 mg/kg/injection, schedule: Q01DX009 (ip), vehicle: saline with Tween-80 86 % of control

NC(=S)N/N=C/c1cc2c3c(c1)CCCN3CCC2
inactive: dose: 100.0 mg/kg/injection, schedule: Q04DX003 (ip), vehicle: saline with Tween-80 109 % of control | dose: 200.0 mg/kg/injection, schedule: Q04DX003 (ip), vehicle: saline with Tween-80 103 % of control | dose: 400.0 mg/kg/injection, schedule: Q04DX003 (ip), vehicle: saline with Tween-80 103 % of control

N#CCCN(C(=S)Nc1cccc(C(F)(F)F)c1)C1CCCCC1
inactive: dose: 100.0 mg/kg/injection, schedule: Q01DX001 (ip), vehicle: Klucel (hydroxypropylcellulose) (HPC) 96 % of control | [10] 107 % of control and 108 % of control | dose: 100.0 mg/kg/injection, schedule: Q04DX002 (ip), vehicle: Klucel (hydroxypropylcellulose) (HPC) 102 % of control and 104 % of control | [11] 98 % of control | dose: 200.0 mg/kg/injection, schedule: Q01DX001 (ip), vehicle: Klucel (hydroxypropylcellulose) (HPC) 90 % of control | [12] 101 % of control and 107 % of control | dose: 200.0 mg/kg/injection, schedule: Q04DX002 (ip), vehicle: Klucel (hydroxypropylcellulose) (HPC) 108 % of control and 114 % of control | [13] 97 % of control | dose: 400.0 mg/kg/injection, schedule: Q01DX001 (ip), vehicle: Klucel (hydroxypropylcellulose) (HPC) 98 % of control | [14] 96 % of control and 112 % of control | [15] 100 % of control and 101 % of control | [16] 97 % of control

O=C1C2CCCCC2C(=O)N1O (centres undefined)
inactive: [7] 94 % of control | [4] 102 % of control | [8] 92 % of control | [5] 96 % of control | [17] 94 % of control | [6] 103 % of control

O=C(C[n+]1cccc2ccccc21)c1ccc(-c2ccc(C(=O)C[n+]3cccc4ccccc43)cc2)cc1
inactive: dose: 0.13 mg/kg/injection, schedule: Q04DX003 (ip), vehicle: saline 103 % of control | dose: 0.25 mg/kg/injection, schedule: Q04DX003 (ip), vehicle: saline 103 % of control | dose: 0.5 mg/kg/injection, schedule: Q04DX003 (ip), vehicle: saline 102 % of control

NC(=O)NC1CC(c2ccccc2)C(O)(c2ccccc2)C1 (centres undefined)
inactive: dose: 50.0 mg/kg/injection, schedule: Q01DX001 (ip), vehicle: saline 86 % of control | [7] 92 % of control | [8] 90 % of control

NC(N)=N/N=C/C(Cl)Cl
inactive: dose: 15.0 mg/kg/injection, schedule: Q01DX Z (ip), vehicle: carboxymethylcellulose (CMC) 103 % of control | dose: 25.0 mg/kg/injection, schedule: Q01DX009 (ip), vehicle: saline with Tween-80 100 % of control | dose: 30.0 mg/kg/injection, schedule: Q01DX Z (ip), vehicle: carboxymethylcellulose (CMC) 97 % of control | dose: 30.0 mg/kg/injection, schedule: Q01DX Z (oral), vehicle: carboxymethylcellulose (CMC) 92 % of control | dose: 37.0 mg/kg/injection, schedule: Q01DX Z (oral), vehicle: carboxymethylcellulose (CMC) 113 % of control | dose: 50.0 mg/kg/injection, schedule: Q01DX009 (ip), vehicle: saline with Tween-80 103 % of control | dose: 50.0 mg/kg/injection, schedule: Q04DX003 (ip), vehicle: saline 98 % of control | dose: 60.0 mg/kg/injection, schedule: Q01DX Z (ip), vehicle: carboxymethylcellulose (CMC) 111 % of control | dose: 60.0 mg/kg/injection, schedule: Q01DX Z (oral), vehicle: carboxymethylcellulose (CMC) 121 % of control | dose: 75.0 mg/kg/injection, schedule: Q01DX001 (oral), vehicle: carboxymethylcellulose (CMC) 113 % of control | dose: 75.0 mg/kg/injection, schedule: Q01DX Z (oral), vehicle: carboxymethylcellulose (CMC) 107 % of control | [9] 121 % of control | [4] 102 % of control | dose: 150.0 mg/kg/injection, schedule: Q01DX001 (oral), vehicle: carboxymethylcellulose (CMC) 104 % of control | dose: 300.0 mg/kg/injection, schedule: Q01DX001 (oral), vehicle: carboxymethylcellulose (CMC) 104 % of control | dose: 300.0 mg/kg/injection, schedule: Q01DX Z (oral), vehicle: carboxymethylcellulose (CMC) 113 % of control | dose: 600.0 mg/kg/injection, schedule: Q01DX001 (oral), vehicle: carboxymethylcellulose (CMC) 117 % of control

NC(CSS(=O)(=O)O)=NCCc1ccccn1
inactive: dose: 12.5 mg/kg/injection, schedule: Q04DX002 (ip), vehicle: Klucel (hydroxypropylcellulose) (HPC) 100 % of control | dose: 25.0 mg/kg/injection, schedule: Q04DX002 (ip), vehicle: Klucel (hydroxypropylcellulose) (HPC) 88 % of control | dose: 50.0 mg/kg/injection, schedule: Q04DX002 (ip), vehicle: Klucel (hydroxypropylcellulose) (HPC) 91 % of control | [15] 90 % of control

COc1cc(N=O)c(C(=O)c2nccc3cc(OC)c(OC)cc23)cc1OC
inactive: [7] 104 % of control | [8] 91 % of control | [17] 94 % of control

Cc1ccc(NC(=O)Oc2ccc(-c3ccccc3)cc2)cc1
inactive: [10] 107 % of control | [12] 100 % of control | [14] 92 % of control

O=S(=O)(Nc1ccc2ccccc2c1)c1cccc2ccccc12
inactive: [11] 101 % of control | [13] 93 % of control | [16] 101 % of control

COc1c(NC(=O)Nc2ccc(SC)cc2)cccc1[N+](=O)[O-]
inactive: [10] 89 % of control | [12] 98 % of control | [14] 93 % of control
